Measured values published in patent US20130065964A1, “PERITONEAL DIALYSIS SOLUTION” (UNIVERSIDAD DE CASTILLA LA MANCHA, priority 2010, published 2013).

Assays:
fibronectin = assay: Real-time RT-PCR in PMCs from dialysed rats; type: in vivo, rat; conditions: peritoneal cells from rats dialysed four weeks, aliskiren 0.1 or 1 mg/Kg, FIG. 17
Experimental: The rats were exposed daily for four weeks to carrier (saline serum), 1.5% PDF, 2.3% PDF or 4.5% PDF supplemented by carrier, 0.1 mg/Kg aliskiren or 1 mg/Kg aliskiren. The data is expressed as mean±SEM, n=6 rats per group.* p<0.05, compared to the group treated with carrier in the absence of aliskiren (carrier). # p<0.05, compared to their respective groups treated with PDFs in the absence of aliskiren. […]
At the end of the experimental period (four weeks), 30 ml of a commercial PDF with 2.3% glucose (Fresenius Medical Car, Bad Homburg, Germany) was administered intraperitoneally using a 22G needle. […] Their body weight was measured at the start and end of the experimental period. […]
The blood and dialysate samples were centrifuged and stored at −20° C. The concentrations of creatinine and glucose in the serum and dialysate were measured using enzymatic methods. The peritoneal transport of solutes was calculated, on one hand, as the glucose concentration in the dialysate 2 hours after the PET relative to the initial glucose concentration in the PDF (D2/D0 glucose) and, on the other, as the dialysate/plasma creatinine concentration ratio (D2/P2 creatinine) 2 h after the PET. […]
The RNA expression was evaluated by real-time RT-PCR in PMCs. […] RNA quality and concentration was evaluated by spectrophotometry (Infinite 200, Tecan, Salzburg, Austria) using 1 μl of the RNA sample. […]

peritoneum = assay: Chronic peritoneal dialysis in rats, peritoneal equilibrium test (PET); type: in vivo, rat; conditions: rats dialysed daily for four weeks with PDF, aliskiren 0.1 or 1 mg/Kg, FIGS. 12 and 13
Experimental: The rats were exposed daily for four weeks to carrier (saline serum), 1.5% PDF, 2.3% PDF or 4.5% PDF supplemented by carrier, 0.1 mg/Kg aliskiren or 1 mg/Kg aliskiren. The data are expressed as mean±SEM, n=6 rats per group. * p<0.05, compared to the group treated with carrier in the absence of aliskiren (carrier). # p<0.05, compared to their respective groups treated with PDFs in the absence of aliskiren. […] The rats were exposed daily for four weeks to carrier (saline serum), 1.5% PDF, 2.3% PDF or 4.5% PDF supplemented by carrier, 0.1 mg/Kg aliskiren or 1 mg/Kg aliskiren. The data is expressed as mean media±SEM, n=6 rats per group. * p<0.05, compared to the group treated with carrier in the absence of aliskiren (carrier). # p<0.05, compared to their respective groups treated with PDFs in the absence of aliskiren. […] Their body weight was measured at the start and end of the experimental period. […] The concentrations of creatinine and glucose in the serum and dialysate were measured using enzymatic methods. The peritoneal transport of solutes was calculated, on one hand, as the glucose concentration in the dialysate 2 hours after the PET relative to the initial glucose concentration in the PDF (D2/D0 glucose) and, on the other, as the dialysate/plasma creatinine concentration ratio (D2/P2 creatinine) 2 h after the PET. […]

## COCCCOc1cc(C[C@@H](C[C@H](N)[C@@H](O)C[C@H](C(=O)NCC(C)(C)C(N)=O)C(C)C)C(C)C)ccc1OC [aliskiren]
fibronectin
  RNAm expression of fibronectin: increased
peritoneum
  peritoneal damage in vivo (D2/D0 glucose, D2/P2 creatinine): reduced peritoneal damage
